Results on one compound are retold here after US5849801A, “4-amino-5-oxy-2,6,6-trimethyl-2-cycloheptene compounds” (Tokyo Tanabe Company Limited, priority 1995, dated 1998).

Test [1] concerns calcium contraction of the thoracic aorta. Put plainly: Effect on calcium contraction (in vitro), thoracic aorta specimens. More on the design: species or system Male SD rats. The following applies: Rattus norvegicus; 1×10^-7 M in dimethylsulfoxide; 0.3 mM calcium chloride, 80 mM KCl buffer. The method, then:
This was investigated according to the method of Ishibashi, et al. (Ishibashi, A. et al., Folia Pharmacologica Japonica, Vol. 82, p. 361, 1983). Male SD rats of body weight approximately 300 g were used to prepare thoracic aorta extract specimens, which were suspended and immobilized in a organ bath containing 10 ml of Krebs-Henseleit buffer solution at 37° C. through which a mixed gas of oxygen (95%) and carbon dioxide (5%) had been passed. After equilibrating the specimens, they were equilibrated in a buffer solution without calcium chloride and then in an isotonic calcium-free 80 mM potassium chloride buffer solution replaced with potassium ions, and a resting tension of 0.2 g was applied. Contraction was induced by addition of 0.3 mM calcium chloride. The test compounds were added 10 minutes prior to addition of the calcium solution. The percent inhibition of the test compounds were calculated using the first contraction as the control (100% contraction). The test compounds were used for the test as solutions in dimethylsulfoxide at a 1×10^-7 M concentration.

For test [2], the system named is platelet aggregation induced by arachidonic acid. Put plainly: Inhibiting effect on platelet aggregation (in vitro), arachidonic acid as aggregating agent. The note with it: Oryctolagus cuniculus; arachidonic acid 68.6 μg/ml, 37° C., platelet suspension. The class given is cell-based, Japanese white male house rabbits. The method, then: Platelet rich plasma was prepared from Japanese white male house rabbits (body weight: 2.5~3.0 kg) following the method of Suzuki et al. (Suzuki, K. et al., The Clinical Report, Vol. 21, No. 13, p. 5263, 1987). The resulting platelet rich plasma solution was appropriately diluted with a Tris-Tyrode buffer solution (pH 7.4) to prepare a 4×10^5 platelet/μl platelet suspension to be used for the test. The platelet aggregation was measured using a platelet aggregometer (NBS Hematoracer 601, product of Nikoh Bioscience Co.). Specifically, 250 μl of the platelet suspension, 5 μl of a 96 mM calcium chloride solution and 5 μl of the test compound solution dissolved in methanol were added to a cuvette, and after incubating for one minute at 37° C., 20 μl of an aggregating agent was added and the maximum degree of aggregation occurring was determined. The aggregating agents used were platelet activating factor (PAF) (2.5 ng/ml) and arachidonic acid (68.6 μg/ml). The 50% inhibition concentration (IC50) was calculated from the results of measurement with various concentrations of each test compound.

Test [3] relates to antigen-induced guinea pig bronchoconstriction. In words: Effect on antigen-induced guinea pig bronchoconstriction. Format: in vivo, Male Hartley guinea pigs. The note with it: inhaled one minute before i.v. DNP-bovine serum albumin; observed 15 minutes; passively sensitized. The method, then:
Male Hartley guinea pigs (body weight: 300~450 g, Nihon Crea Co.) were intraperitonealy administered anti-DNP-Ascarls serum (1024-fold antibody titer) at 0.5 ml/kg. After 24 hours, under urethane anesthesia there were inserted a cannula into the trachea, a sphygmomanometric cannula into the left cervical artery and a drug injection cannula into the right jugular vein, and gallamine triethiodide (1.0 mg/0.5 ml/kg) was intravenously administered and connected to an artificial respirator (product of Ugo Basile). For the test, diphenhydramine (60 mg/ml/kg) was intraperitoneally administered, the compound of Example 16 was inhaled as the test compound after 14 minutes, and following intravenous administration of DNP-bovine serum albumin (1.0 mg protein/0.5 ml/kg) one minute after administration of the test compound, the degree of bronchoconstriction was observed over a period of 15 minutes. The bronchoconstriction rate was given as a percentage of the maximum air over flow volume obtained by clamping off the trachea. The test compounds were inhaled by nebulizing for 30 seconds with an ultrasonic nebulizer.

For test [4], the system named is rat peripheral arterial occlusion models. In words: Effect on rat peripheral arterial occlusion models (5% lactic acid induced). The class given is in vivo, SD rats. The following applies: i.v., solvent physiological saline (printed once, above), lower leg lesions at 14 days. The method, then:
Models were prepared following the method of Iwamoto et al. (Iwamoto, M. et al., Japanese Pharmacology & Therapeutics, Vol. 14, Suppl. 5, p. 41, 1986). Upon minimal dissection of the femoral regions of SD rats (6 per group) with a body weight of 250~350 g under Nembutal anesthesia, 0.1 ml of 5% lactic acid was administered intraarterially. The rats were raised for 14 days under normal conditions, and observed for lesions of the lower legs. The grading for the lesions was: "1" for nigrities only at the nail tips, "2" for nigrities up to the digits, "3" for necrosis of the digits, and "4" deciduation of the digits. Each of the digits of the lower legs on the side where lactic acid had been administered were graded, and the overall grade was determined as the index of lesions. The disorder inhibition rate was determined by dividing the index of lesions in the drug-administered group by the index of lesions of the control group. The drugs were dissolved in physiological saline or dimethylsulfoxide, and injected through the caudal vein 5 minutes prior to injection of the 5% lactic acid.

Test [5] has as its system histamine-induced guinea pig bronchoconstriction. In words: Effect on histamine-induced guinea pig bronchoconstriction models. The class given is in vivo, male Hartley guinea pigs. The following applies: inhalation for 30 seconds, hydrochloride, histamine 3 μg/kg i.v. after 2 minutes. As for the experimental part: After urethane anesthetization of male Hartley guinea pigs (body weight: 350~450 g, 5 per group, Nihon Crea Co.), a small cannula was inserted into trachea. Next, gallamine triethiodide (1 mg/kg) was intravenously administered, and the tracheal cannula was connected to a constant volume respirator. The artificial respiration was conducted with an air volume per breath of 7~10 ml, a breath frequency of 60/min and a lung application pressure of 10 cm water. The volume of air overflowing from the legs on the cannula side was recorded on a polygraph (RM6100: product of Nihon Koden Co.) with a model 7020 bronchospasm transducer (product of Ugo Basile). Hydrochloride of the test compounds were dissolved in physiological saline, and inhalation was performed with reference to the method of Minami et al. […] The inhalation load apparatus was prepared by directly incorporating an ultrasonic nebulizer into an artificial respiration circuit (Omron ultrasonic aspirator NE-U11B, product of […] Electric Co.). The test compound (mg/0.5 ml) was administered by inhalation for 30 seconds, and after 2 minutes histamine (3 μg/kg) was intravenously administered and the air overflow volume was measured. The bronchoconstriction rate was calculated as a percentage with 100 being the height of contraction when the airway was completely constricted. The inhibition rate was calculated by dividing the contraction rate of the test compound group by the contraction rate of the control group.

In test [6] the test system is blood pressure of anesthetized rats. In words: Effect on blood pressure of anesthetized rats. Format: in vivo, Male SD rats. The note with it: Rattus norvegicus, intravenous, diastolic, urethane anesthesia, read-out: Reduction of blood pressure (%). As for the experimental part:
Male SD rats (body weight: 250~350 g, product of Nihon Crea Co.) were placed under urethane anesthesia and then a sphygmomanometric pressure transducer was inserted into the left cervical artery and recording was made on a polygraph (RM6100, product of Nihon Koden Co.) using a strain pressure […], product of Nihon Koden Co.). The test compounds were dissolved in physiological saline and administered intravenously. The change in blood pressure was indicated as the reduction rate from the initial value of diastolic blood pressure just prior to administration of the test compound.

Where a name gives a salt, the structure may show the parent alone.

As a reminder, the inhibition is the relative decrease from the control value, in per cent. As usually defined, the IC50 is the concentration that inhibits the measured activity by half. Low readings indicate greater potency in that assay, high ones weaker potency in that assay.

Take `CC1=CC(N2CCCCC2)C(O)C(C)(C)CC1=O` (stereo not shown) [Example 16, 5-hydroxy-4-piperidino-2,6,6-trinethyl-2-cyclohepten-1-one hydrochloride]: the inhibition at 0.1 µM in test [1] amounted to 24%. This compound also registered an IC50 in test [2] of 100 µM. For the same compound, in test [3], the “airway contraction / bronchoconstriction (FIG. 1)” value is recorded as “inhibited airway contract ion”. Besides, the figures for the Inhibition rate in test [4] (3 mg/kg) and in test [4] (30 mg/kg) were 65% and 78%, respectively. For the same compound, the Brochoconstriction inhibition rate worked out at 32% in test [5] (3.0 mg/0.5 ml) and 46% in test [5] (10.0 mg/0.5 ml). The inhibition in vivo at 1 mg/kg in test [6] (1 mg/kg) came to 6%. The inhibition in vivo at 3 mg/kg in test [6] (3 mg/kg) is 16%. Besides, in test [6] (10 mg/kg), the inhibition in vivo at 10 mg/kg is 40%.
